According to ChEMBL document CHEMBL5053499, “Indole Alkaloids from a Soil-Derived Clonostachys rosea” (J Nat Prod, 2021):
In brackets after ≈: the same amount, converted by molar mass. Activity calls are given as the source filed them. The rule behind the calls is not given here.

Columns and labels:
[1] = system: Pseudomonas syringae pv. actinidiae; experiment: Antimicrobial activity against Pseudomonas syringae pv. actinidiae assessed as reduction in bacterial growth measured at 100 ug/ml after 48 hrs by double dilution method; assay type: functional; conditions: dose 100.0 µg/ml
Ralstonia solanacearum = experiment: Antimicrobial activity against Ralstonia solanacearum assessed as reduction in bacterial growth at 100 ug/ml measured after 48 hrs by double dilution method; assay type: functional, organism-based; conditions: dose 100.0 µg/ml
Bacillus subtilis = experiment: Antimicrobial activity against Bacillus subtilis assessed as reduction in bacterial growth at 100 ug/ml measured after 48 hrs by double dilution method; assay type: functional; conditions: for Activity: dose 100.0 µg/ml
Escherichia coli = experiment: Antimicrobial activity against Escherichia coli assessed as reduction in bacterial growth at 100 ug/ml measured after 48 hrs by double dilution method; assay type: functional, organism-based; conditions: dose 100.0 µg/ml
Pseudomonas sp. [2] = experiment: Antimicrobial activity against Pseudomonas sp. assessed as reduction in bacterial growth at 100 ug/ml measured after 48 hrs by double dilution method; assay type: functional, organism-based; conditions: dose 100.0 µg/ml
HeLa = experiment: Cytotoxicity against human HeLa cells assessed as reduction in cell viability measured after 48 hrs by CCK8 assay; assay type: functional, cell-based
HepG2 = experiment: Cytotoxicity against human HepG2 cells assessed as reduction in cell viability measured after 48 hrs by CCK8 assay; assay type: functional, cell-based; conditions: HepG2, 48 h
Bacillus cereus = experiment: Antimicrobial activity against Bacillus cereus assessed as reduction in bacterial growth at 100 ug/ml measured after 48 hrs by double dilution method; assay type: functional, organism-based; conditions: dose 100.0 µg/ml
Staphylococcus aureus = experiment: Antimicrobial activity against Staphylococcus aureus assessed as reduction in bacterial growth at 100 ug/ml measured after 48 hrs by double dilution method; assay type: functional, organism-based; conditions: dose 100.0 µg/ml
Alternaria alternata = experiment: Antifungal activity against Alternaria alternata assessed as inhibition of fungal growth measured after 72 hrs by double dilution method; assay type: functional, organism-based
Fusarium oxysporum = experiment: Antifungal activity against Fusarium oxysporum assessed as inhibition of fungal growth measured after 72 hrs by double dilution method; assay type: functional
Phytophthora capsici = experiment: Antifungal activity against Phytophthora capsici assessed as inhibition of fungal growth measured after 72 hrs by double dilution method; assay type: functional, organism-based
Pseudomonas sp. [3] = experiment: Antimicrobial activity against Pseudomonas sp. assessed as reduction in bacterial growth measured after 48 hrs by double dilution method; assay type: functional

| SMILES | Activity [1] | Activity (Ralstonia solanacearum) | Activity (Bacillus subtilis) | Activity (Escherichia coli) | Activity (Pseudomonas sp. [2]) | IC50 (HeLa) | IC50 (HepG2) | Activity (Bacillus cereus) | Activity (Staphylococcus aureus) | Activity (Alternaria alternata) | Activity (Fusarium oxysporum) | Activity (Phytophthora capsici) | MIC (Pseudomonas sp. [3]) | MIC (Bacillus subtilis; dose 100 µg/ml) | MIC (Fusarium oxysporum) |
| --- | --- | --- | --- | --- | --- | --- | --- | --- | --- | --- | --- | --- | --- | --- | --- |
| CN1C(=O)C(=O)N2C(=C[C@@]3(c4c[nH]c5ccccc45)c4ccccc4N[C@@H]23)C1=O | inactive | inactive | inactive | inactive | inactive | > 20 µM | > 20 µM | inactive | inactive |  |  |  |  |  |  |
| CS[C@@]1(Cc2c[nH]c3ccccc23)NC(=O)[C@H]([C@@H](C)O)NC1=O | inactive | inactive | inactive | inactive | inactive | > 20 µM | > 20 µM | inactive | inactive |  |  |  |  |  |  |
| C[C@@H](O)[C@@H]1NC(=O)[C@H](Cc2c[nH]c3ccccc23)NC1=O | inactive | inactive | inactive | inactive | inactive | > 20 µM | > 20 µM | inactive | inactive | inactive | inactive | inactive | 50 µg/mL (≈ 174 µM) |  |  |
| CS[C@@]1(Cc2c[nH]c3ccccc23)NC(=O)[C@@](SC)([C@@H](C)O)NC1=O | inactive | inactive | inactive | inactive | inactive | > 20 µM | > 20 µM | inactive | inactive |  |  |  |  |  |  |
| CS[C@@H]1C(=O)N2[C@@H]3Nc4ccccc4[C@]3(c3c[nH]c4ccccc34)[C@@H](O)[C@@]2(SC)C(=O)N1C | inactive | inactive | inactive | inactive | inactive | > 20 µM | > 20 µM | inactive | inactive |  |  |  |  |  |  |
| O=C(O)c1ccc(O)c2c1Cc1cccn1-2 | inactive | inactive | inactive | inactive | inactive | > 20 µM | > 20 µM | inactive | inactive | inactive | inactive | inactive |  |  |  |
| C[C@H](O)[C@H]1NC(=O)[C@@H](Cc2c[nH]c3ccccc23)NC1=O |  |  |  |  |  |  |  |  |  | inactive | inactive | inactive |  | 25 µg/mL (≈ 87 µM) |  |
| C[C@@H](O)[C@]12SS[C@@]3(C(=O)N1C)[C@H](O)C1([C@]45c6ccccc6N[C@H]4N4C(=O)[C@@]6([C@@H](C)O)SS[C@@]4(C(=O)N6C)[C@@H]5O)c4ccccc4N[C@H]1N3C2=O (stereo not given in full) | inactive | inactive | inactive | inactive | inactive | 0.12 µM | 0.37 µM | inactive | inactive |  |  |  |  |  |  |
| C[C@@H](O)[C@@H]1OC(=O)[C@@H]2[C@H]3c4c[nH]c5cccc(c45)C[C@H]3C(C)(C)N2C1=O | inactive | inactive | inactive | inactive | inactive | > 20 µM | > 20 µM | inactive | inactive | inactive |  | inactive |  |  | 50 µg/mL (≈ 141 µM) |
| C[C@@H](O)[C@]12SS[C@@]3(C(=O)N1C)[C@H](O)[C@@]1(c4c[nH]c5ccccc45)c4ccccc4N[C@H]1N3C2=O | inactive | inactive | inactive | inactive | inactive | 0.42 µM | 0.6 µM | inactive | inactive |  |  |  |  |  |  |
